Measurements reported in paper PMC4747952, “Development of TASP0410457 (TASP457), a novel dihydroquinolinone derivative as a PET radioligand for central histamine H3 receptors” (EJNMMI Research, 2016).

Columns and labels:
[1] = Ex vivo pharmacokinetic assessment in the rat brain using LC-MS/MS; conditions: 10 μg/kg intravenous, n = 3
Method: The rats were decapitated at 5, 15, 30, 60, and 120 min after intravenous administration of TASP0390136, TASP0390174, TASP0410426, TASP0410427, TASP0410457, or TASP0434988 at a dose of 10 μg/kg. The cerebellum and forebrain, including the medial prefrontal and cingulate cortices and anterior striatum, were dissected and homogenized with four volumes of distilled water. The homogenates were protein-precipitated with methanol/acetonitrile (1:9) and were centrifuged at 3974×g for 10 min at 4 °C. The resultant supernatants were injected into an HPLC (Shimadzu-20AD, Shimadzu, Kyoto, Japan) and a tandem mass spectrometer (API4000, AB SCIEX, Framingham, MA) using a Shim-pak XR-ODS column (3.0 × 30 mm, Shimadzu) at 50 °C. TASP0410457 was eluted with a mobile phase consisting of 10 mM of ammonium acetate/acetonitrile with a linear gradient at a flow rate of 1.3 mL/min, and ammonium formate instead of ammonium acetate was used for eluting the other five compounds. […] The eluted TASP0390136, TASP0390174, TASP0410426, TASP0410427, TASP0410457, and TASP0434988 were ionized using an electrospray interface and were detected using reaction monitoring of the transitions of m/z 395 to 91, 395 to 98, 413 to 98, 425 to 98, 408 to 138, and 407 to 138, respectively. A dihydroquinolinone compound (6-[(1-cyclobutylpiperidin-4-yl)oxy]-1-(3,5-difluorophenyl)-3,4-dihydroquinolin-2(1H)-one) was used as an internal standard for all assays. The lower qualification limit for TASP0410457 was 0.05 ng/g tissue, and the limit for the other five compounds was 0.15 ng/g tissue. Data were expressed as standardized uptake values (SUVs) calculated as follows: SUV=tissueconcentrationg/g×bodyweightg/injecteddoseg

rat H3R = biological target: T1, rat H3R (Rattus norvegicus, UniProt Q9QYN8); assay: In vitro binding to H3Rs, rat cerebral cortex membranes, [^3H]N-α-methylhistamine; conditions: 1 nM [^3H]N-α-methylhistamine, geometric mean, n = 3, read-out: Affinity for H3Rs Rat, IC50
T1 construct: Rat cerebral cortex and monkey frontal cortex were dissected; from tissue; host or cells: rat cerebral cortex membranes
Method: Rat cerebral cortex and monkey frontal cortex were dissected, homogenized with 50 mM Tris buffer (pH 7.4) containing 5 mM EDTA and Protease Inhibitor Cocktail Tablets (Roche Diagnostics, Indianapolis, IN) and centrifuged at 48,000×g for 15 min at 4 °C. The pellets were then suspended in binding buffer (50 mM Tris containing 5 mM EDTA, pH 7.4) and stored at −80 °C as membrane preparations.
The membrane preparations were thawed and incubated in the binding buffer containing 0.1 % bovine serum albumin, 1 nM [^3H]N-α-methylhistamine (PerkinElmer, Waltham, MA) with various concentrations of a dihydroquinolinone derivative (i.e., test compound) at 25 °C for 1 h. The reaction was terminated by rapid filtration through 96-well GF/C filter plates (PerkinElmer) presoaked with 0.5 % polyethyleneimine (Wako, Osaka, Japan). After washes with ice-cold binding buffer, the plates were dried and filled with Microscint-o (PerkinElmer). The radioactivity retained on the filters was counted using a TopCount NXT (PerkinElmer). Total and nonspecific radioligand binding was determined by reaction without and with 10 μM thioperamide and clobenpropit, respectively. The specific radioligand binding was then calculated by subtracting the nonspecific binding from the total binding. The IC50 value for inhibition of the radioligand binding by the test compound was determined using a nonlinear fit of the concentration-response curve for each test compound using SAS 9.2 (SAS Institute Inc., Cary, NC). Data were expressed as the geometric means of IC50 values from three independent experiments run in duplicate.

H3R = biological target: T2, H3R (Rattus norvegicus, UniProt Q9QYN8); assay: PET imaging of rat brains; format: in vivo; conditions: for cerebellar SUV at 15 min after radioligand injection: mean ± S.D.
T2 construct: from tissue; host or cells: brain of living Sprague-Dawley rats
Method: Six-week-old male Sprague-Dawley rats were purchased from Japan SLC (Shizuoka, Japan). PET scans were performed using a microPET Focus 220 small-animal scanner (Siemens Medical Solutions USA, Knoxville, TN). The rats were anesthetized with 1.5–2 % isoflurane during the imaging session, while their heart rate and blood oxygen saturation were monitored by pulse oximeter (CANL-425SVA; Med Associates, St. Albans, VT). Body temperature was kept at 37 °C with a heating pad (BWT-100; Bio Research Center, Aichi, Japan). Following the transmission scans for attenuation correction using a ^68Ge-^68Ga point source, emission scans were performed for 90 min in 3D list-mode with an energy window of 350–750 keV, immediately after the intravenous injection of each radioligand. Mean ± S.D. of the injected radioactivity of [^11C]TASP0410457, [^11C]TASP0434988, and [^11C]TASP0390136 was 119 ± 26 MBq, 132 ± 34 MBq, and 124 ± 17 MBq, respectively (n = 3–5). Mean ± S.D. of the mass doses of [^11C]TASP0410457, [^11C]TASP0434988, and [^11C]TASP0390136 was 2.4 ± 1.2 μg/kg, 1.9 ± 0.4 μg/kg, and 4.2 ± 1.6 μg/kg, respectively (n = 3–5).
To assess the specificity of radioligand binding, thioperamide was injected intravenously at a dose of 10 mg/kg at 30 s before the injection of each radioligand.
All list-mode data were sorted into 3D sinograms, which were then Fourier rebinned into 2D sinograms (frames: 1 min × 4, 2 min × 8 and 5 min × 14). Images were reconstructed using 2D-filtered back-projection with a 0.5-mm Hanning filter.
PET image and magnetic resonance imaging (MRI) template were co-registered using PMOD software (PMOD version 3.206; Zurich, Switzerland) according to the following procedure as in our previous works: Outline of the whole brain and positions of eyes in PET images at an early phase of the scan were initially matched to those in MRI images, and then further translations and rotations of PET images were manually performed for fine alignments. Finally, parameters for the co-registration were applied to the entire dynamic PET data. Regions of interest (ROIs) were placed on the striatum, hippocampus, and cerebellum using PMOD software with reference to the MRI template as described elsewhere. The tissue time-activity curves (TACs) for these ROIs were generated by calculating the SUV for each time frame as follows: SUV=radioactivityBq/g×bodyweightg/injectedradiotracerdoseBq
The binding potentials relative to the non-displaceable uptake (BPND) in the striatum and hippocampus were estimated using the simplified reference tissue model (SRTM) with PMOD software using the cerebellum as a reference region, as the rat cerebellum is devoid of H3R [26].

[2] = Radiochemical stability in the final formulation; format: physicochemical; conditions: at 40 min after the end of radiosynthesis
Method: [^11C]TASP0390136, [^11C]TASP0410457, and [^11C]TASP0434988 were synthesized as shown in Fig. 1a–c (detailed procedures are described in Additional file 1: Supplemental methods) using a homemade automated synthesis system. The radiochemical purities and specific activities of the radioligands, which were analyzed as described in Additional file 1: Supplemental Methods, along with their radiochemical yields and average synthesis times, are summarized in Table 1. Analytical HPLC chromatogram of each radioligand is shown in Additional file 2-4: Figures S1-S3. The radiochemical stabilities of [^11C]TASP0410457 and [^11C]TASP0434988 in the final formulation were >99 % at 1 h and 40 min, respectively, after the end of radiosynthesis.

central H3Rs = assay: Receptor occupancy assay, [^11C]TASP0410457-PET, Lassen's plot; format: in vivo, monkey
Method: Occupancy of central H3Rs by ciproxifan, a selective antagonist/inverse agonist, was quantified by [^11C]TASP0410457-PET scans of an anesthetized monkey with arterial blood sampling. […] Receptor occupancy of ciproxifan was determined using Lassen’s plot without any reference regions using the following equation: VT^Baseline−VT^Ciproxifan=OccVT^Baseline−VND where VT^Baseline and VT^Ciproxifan are the regional VT values at baseline and in the ciproxifan challenge, respectively, VND is the non-displaceable distribution volume, and Occ is the occupancy.

[3] = thioperamide predosing 10 mg/kg
[4] = SRTM, cerebellum as reference region

T2 sequence (Q9QYN8 whole entry): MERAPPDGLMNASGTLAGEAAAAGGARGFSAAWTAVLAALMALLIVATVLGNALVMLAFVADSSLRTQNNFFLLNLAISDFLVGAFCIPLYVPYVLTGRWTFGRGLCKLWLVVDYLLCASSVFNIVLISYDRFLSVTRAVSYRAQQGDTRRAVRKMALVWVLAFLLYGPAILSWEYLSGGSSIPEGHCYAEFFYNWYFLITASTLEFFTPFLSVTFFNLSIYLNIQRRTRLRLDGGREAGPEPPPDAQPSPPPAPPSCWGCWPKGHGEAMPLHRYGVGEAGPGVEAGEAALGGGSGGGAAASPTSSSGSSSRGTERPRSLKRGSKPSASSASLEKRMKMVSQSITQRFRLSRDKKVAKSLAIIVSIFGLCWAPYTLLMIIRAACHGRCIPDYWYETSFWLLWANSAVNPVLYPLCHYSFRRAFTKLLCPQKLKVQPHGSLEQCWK
T1 sequence (Q9QYN8 whole entry): as above

| SMILES | Mean peak concentration in the forebrain expressed as SUV [1] | IC50 (rat H3R) | cerebellar SUV at 15 min after radioligand injection (H3R; baseline) | cerebellar SUV at 15 min after radioligand injection (H3R; [3]) | further results |
| --- | --- | --- | --- | --- | --- |
| C[C@@H]1CCCN1CCCOc1ccc2c(c1)CCC(=O)N2c1ccc(O[11CH3])cc1 [[^11C]TASP0390136] |  |  | 0.33 ± 0.01 | 0.30 ± 0.03 |  |
| [11CH3]Oc1ccc(N2C(=O)CCc3cc(OC4CCN(C5CCC5)CC4)ccc32)cc1 [[^11C]TASP0434988] |  |  | 0.64 ± 0.04 | 0.59 ± 0.02 | radiochemical stability in the final formulation [2]: > 99%; striatal and hippocampal peak SUVs lower than those for [^11C]TASP0410457 (H3R): 20–25%; BPND, Hippocampus (H3R; [4]): 0.36 ± 0.11; BPND, Striatum (H3R; [4]): 0.92 ± 0.21; time for specific binding to reach a pseudo-equilibrium state (H3R; target-to-reference ratios, after intravenous injection): ≤ 15 min |
| O=C(c1ccc(OCCCc2cnc[nH]2)cc1)C1CC1 [ciproxifan, reference compound] |  |  |  |  | receptor occupancy (central H3Rs; 3 mg/kg intravenously, 10 min before [^11C]TASP0410457, anesthetized monkey, Lassen's plot): ~ 75%; adverse effects preventing completion of PET imaging (central H3Rs; 10 mg/kg, monkey, anesthetized with isoflurane): profound effects on heart rates and body motions |

Now from value to compound, other results behind:

| Mean peak concentration in the forebrain expressed as SUV [1] | IC50 (rat H3R) | cerebellar SUV at 15 min after radioligand injection (H3R; baseline) | cerebellar SUV at 15 min after radioligand injection (H3R; [3]) | SMILES | further results |
| --- | --- | --- | --- | --- | --- |
| 0.28 SUV | < 3 nM |  |  | COc1cccc(N2C(=O)CCc3cc(OCCCN4CCC[C@H]4C)ccc32)c1 [TASP0390174, 1-(3-methoxyphenyl)-6-{3-[(2R)-2-methylpyrrolidin-1-yl]propoxy}-3,4-dihydroquinolin-2(1H)-one] |  |
| 0.30 SUV | < 3 nM |  |  | COc1cc(F)cc(N2C(=O)CCc3cc(OCCCN4CCC[C@H]4C)ccc32)c1 [TASP0410426, 1-(3-fluoro-5-methoxyphenyl)-6-{3-[(2R)-2-methylpyrrolidin-1-yl]propoxy}-3,4-dihydroquinolin-2(1H)-one] |  |
| 0.10 SUV | < 3 nM |  |  | COc1ccc(N2C(=O)CCc3cc(OCCCN4CCC[C@H]4C)ccc32)c(OC)c1 [TASP0410427, 1-(2,4-dimethoxyphenyl)-6-{3-[(2R)-2-methylpyrrolidin-1-yl]propoxy}-3,4-dihydroquinolin-2(1H)-one] |  |
